Results from patent publication US9827184B2, “Peelable transparent diamond nail-care coat” (LES FINS NETWORK TECHNOLOGY CO.,LTD., priority 2015, dated 2017).

Legend:
Experiment in all cases: MTT microplate growth inhibition (MIC50) in MH culture medium
Assay type in all cases: cell-based
Settings in all cases: 96-well plate, 37° C., 24 h, OD 570 nm, unit not given, test concentrations given in μg·ML^−1
trichophyton rubrum = system: trichophyton rubrum
Protocol: (§1) Bacteria (trichophylon rubrum, trichophyton mentagrophytes and epidermophyton fioccosum) are suspended in an MH culture medium with a dispersion concentration of about 10^5 cfu·ML^−1, and bacterium solution is added onto a 96-well plate (100 μL of the bacterium solution is added in each well); and the culture medium is taken as blank control, DMSO is taken as negative control for replacing a test substance, and itraconazole (Xian-Janssen Pharmaceutical Co., Ltd.) is taken as positive control. […] The 96-well plate is placed in an incubator at 37° C. and cultured for 24 h, then 25 μL of PBS containing 4 mg of MTT per mL is added in each well and cultured for 4 h under the same condition, and 100 μL of SDS lysate (95 mL of tri-distilled water+10 g of SDS+5 mL of isopropanol+0.1 mL of concentrated hydrochloric acid) is added in each well and then cultured for 12 h. An OD value is measured by a microplate reader at 570 nm, and an inhibition percent is calculated as follows: [formula]

[1] = system: trichophyton mentagrophytes
Protocol: as §1

epidermophyton floccosum = system: epidermophyton floccosum
Protocol: as §1

Row | SMILES | 50% minimum inhibitory concentration (MIC50) for trichophyton rubrum (trichophyton rubrum) | 50% minimum inhibitory concentration (MIC50) for trichophyton mentagrophytes [1] | 50% minimum inhibitory concentration (MIC50) for epidermophyton floccosum (epidermophyton floccosum)
1 | COc1ccc(-c2cc(=O)c3cc(O)c(OC)c4c3n2OC2OC(C)=C(O)C=C2C4)cc1 (stereo not drawn) [compound of formula I] | 0.63 | 0.60 | 0.82
2 | CCC(C)n1ncn(-c2ccc(N3CCN(c4ccc(OCC5COC(Cn6cncn6)(c6ccc(Cl)cc6Cl)O5)cc4)CC3)cc2)c1=O (stereo not drawn) [itraconazole] | 0.63 | 0.70 | 0.65
